What was measured:
Type in all cases: in vivo, mouse
[1] = system: Gabrb3^ECKO telencephalon; test: Microarray gene expression profile of MGE and striatal tissue at E18
Method: Gene expression profile analysis: RNA samples were prepared from saline-treated Gabrb3^fl/fl, saline-treated Gabrb3^ECKO and NAD^+-treated Gabrb3^ECKO groups from three different brain pools. Total RNA from each of the samples was extracted by using the PicoPure RNA Isolation kit (Arcturus) following the supplier's protocol. Microarray was performed with Mouse Gene 2.0 ST Array (Affymetrix) at the Boston University Microarray & Sequencing Resource, Boston, MA. Mouse Gene 2.0 ST CEL files were normalized to produce gene-level expression values using the implementation of the Robust Multiarray Average (RMA) in the affy package (version 1.36.1) included in the Bioconductor software suite (version 2.11). Principal component analysis (PCA) was analyzed and visualized using Transcriptome Analysis Console 4.0 (Affymetrix). Heatmap visualization and analysis were performed using Morpheus (Broad Institute, Boston, Mass., USA; software.broadinstitute.org/GENE-E/), and ranked by t-test statistics. Violin plot visualization was generated with Z-score using GraphPad Prism v8.0 (GraphPad Software, La Jolla Calif. USA). The gene ontology for gene enrichment study was performed in three GO TERM annotation categories by using the Database for Annotation, Visualization and Integrated Discovery (DAVID) v6.8. Mouse Genome Informatics (MGI) (GO TERM structure categories: cerebral cortex interneuron migration; GABAergic neuron differentiation; interneuron development; MGE derived cells).
In this exemplary embodiment, to gain deeper insights into NAD^+ mediated specific actions in the subcortical telencephalon, a micro-dissection of the MGE and striatal tissue from telencephalic slices of saline-treated Gabrb3^fl/fl mice, saline-treated Gabrb3^ECKO mice, and NAD^+-treated Gabrb3^ECKO mice at E18 was performed. RNA was further extracted, and microarray hybridization on Mouse Gene 2.0 ST arrays (Affymetrix) was performed for Subsequent gene expression analysis (FIG. 7A). Principal component analysis (PCA) plots depicted strict clustering of triplicates from the three samples in the 3D PCA table (FIG. 8A). Differentially expressed genes (fold change cut off ≥+/−50%) in the three groups were compared and represented as heat maps (FIGS. 7B-7C). […] Genes were further classified into specific categories that are essential for embryonic forebrain development: angiogenesis, neurogenesis, GABA signaling and GABA transcription related genes, and the top differentially expressed genes in each category are shown (FIGS. 9A-9E). […] Additionally, differential expression of 10 marker genes in angiogenesis and GABAergic neuron categories in saline-treated Gabrb3^fl/fl, saline-treated Gabrb3^ECKO, and NAD^+-treated Gabrb3^ECKO groups were represented as violin plots (FIGS. 7D-7G).

[2] = system: Gabrb3^ECKO endothelial cells; test: GABA immunostaining and cluster formation of endothelial cells after prenatal treatment
Method: (§1) Primary culture of endothelial cells and endothelial cell staining: Embryonic brains were dissected under a stereo-microscope, after the NAD^+ treatment paradigm and the telencephalon was removed. Pial membranes were peeled off. Telencephalon without pial membranes from the periventricular region was pooled. Purity of endothelial cell cultures was established with endothelial cell markers and determined to be one hundred percent. Isolation and culture of endothelial cells were performed according to published methodology. Periventricular endothelial cells were prepared from CD1 (wild type), saline-treated Gabrb3^fl/fl, saline-treated Gabrb3^ECKO, and NAD^+-treated Gabrb3^ECKO embryos. Endothelial cells were labeled with anti-biotinylated isolectinB4 (1:100, Sigma), anti-GABA (1:400, Sigma), anti-DAXX (1:100, Santa Cruz Biotechnology) and anti-P2X4 (1:100, Abclonal) followed by secondary detection with AlexaFluor conjugates (Invitrogen). DAPI (Invitrogen) was used to label nuclei. Images were taken on an FSX100 microscope (Olympus). 1 million cells were examined for each immunohistochemistry condition.
Endothelial cell derived GABA plays dual roles in the embryonic forebrain. […]

[3] = system: Daxx; test: Daxx mRNA and protein levels in endothelial cells after prenatal treatment
Method: as §1
Quantitative real-time PCR: RT was performed by using iScript Reverse Transcription Supermix kit (Bio-Rad). […] The relative gene expression and subsequent fold changes among different samples were determined according to published methodology. […]

[4] = system: Gabrb3^ECKO mice; test: Self-grooming; details: after prenatal treatment
Method: Behavioral Experiments: Mice were housed in our animal facility with a 12-hour light cycle with ad libitum access to food and water. Offspring stayed with their mothers until weaning at PND 21 after which males and females were separated. Before all behavioral testing, mice were acclimated to the testing room for 1 hour. Behavioral assays were performed according to established protocols referenced here: self-grooming, light-dark box, tail suspension test, Y-maze, open field locomotion activity, three chamber social interaction test and nest building with nestlets and with shredded paper. Both males and females were used for all behavioral assays. Experimenters scoring behaviors were blinded to the genotypes and treatment. Sample sizes for each assay are noted in figure legends.
Therefore, behavioral tests were performed to screen for stress, anxiety, locomotion, cognition, and sociability in saline-treated Gabrb3^fl/fl mice, saline-treated Gabrb3^ECKO mice and NAD^+-treated Gabrb3^ECKO mice. Mice from saline and NAD^+-treated groups were housed individually in cages containing wood chip bedding and two nestlets (pressed cotton) (FIGS. 16A-16D) or more naturalistic material like shredded paper strips (FIGS. 16E-16H). […] This rescue of home cage social behavior was a robust indication of well-being in NAD^+-treated Gabrb3^ECKO mice. […]

In the case of NC(=O)c1ccc[n+]([C@@H]2O[C@H](COP(=O)([O-])OP(=O)(O)OC[C@H]3O[C@@H](n4cnc5c(N)ncnc54)[C@H](O)[C@@H]3O)[C@@H](O)[C@H]2O)c1 [NAD^+], the “GABA neuronal subtype and development genes downregulated in Gabrb3^ECKO (Calb2, Sst, Calb1, Sirt2, Ascl1, Nr2f2, Bdnf, Arx, Sox2)” value ([1]; E18) was “rescued”, the “GABAergic pathway regulatory and axon guidance genes upregulated in Gabrb3^ECKO (Dlx4, Sirt1, Drp2, Foxg1, Daxx, Ablim1, Nrg3)” value ([1]; E18) was “restored to normal expression levels” and the “angiogenesis genes downregulated in Gabrb3^ECKO (Fgfr3, Thbs1, Serpinf1, Tbx1, Angpt1, Mdk, Plxdc1, Efna1, Tspan12)” value ([1]; E18) was “restored to normal levels”. For the same molecule, the “genes related to inflammation (upregulated in saline-treated Gabrb3^ECKO)” value ([1]; E18) was “restored to normal levels”, the “vascular/angiogenesis genes upregulated in Gabrb3^ECKO (Fgf6, Flt1, Hand2, Egf, Itgb3, Plg, Epas1, Bai1, Col4a3, Eng)” value ([1]; E18) was “restored to normal expression levels” and the “purinergic receptor signaling genes (microarray)” value ([1]; vs saline-treated Gabrb3^ECKO group) was “notable change in purinergic receptor signaling genes”. For the same molecule, the “gene expression profile (heat map clusters)” value ([1]; vs saline-treated Gabrb3^ECKO, fold change cut off ≥+/−50%) was “shift in the gene expression profile”, the “GABA expression (immunohistochemistry)” value [2] was “GABA expression was also restored” and the “endothelial cell cluster formation” value [2] was “significantly improved cluster formation”. For the same molecule, the “Daxx mRNA and DAXX protein levels” value [3] was “normalize DAXX levels” and the severe grooming behavior [4] was “ameliorated”.

— patent US20220096515A1, “Methods and Formulations for Preventing Neurological or Psychiatric Disorders” (Huntington Medical Research Institutes, priority 2020, published 2022)
